Assay: xn = mol fraction of the nth substance listed
Settings: 100 kPa, Liquid; for viscosity: Falling or rolling sphere viscometry; for speed of sound: Frequency=3 MHz, Single path-length method; for mass density: Vibrating tube method

CCCCn1cc[n+](C)c1.O=S(=O)([O-])C(F)(F)F [1-butyl-3-methylimidazolium trifluoromethanesulfonate] + CN(C)C=O
Settings	mass density, 313.15 K [kg/m3]	mass density, 318.15 K [kg/m3]	mass density, 323.15 K [kg/m3]	speed of sound, 313.15 K [m/s]	speed of sound, 318.15 K [m/s]	speed of sound, 323.15 K [m/s]	viscosity, 313.15 K [mPa·s]	viscosity, 318.15 K [mPa·s]	viscosity, 323.15 K [mPa·s]
x1 = 0.1087	1027.69	1022.88	1018.08	1398.1	1381.2	1364.5	1.44	1.34	1.26
x1 = 0.203	1085.84	1081.13	1076.42	1390.4	1375	1359.6	2.64	2.4	2.2
x1 = 0.2978	1129.15	1124.56	1119.97	1381.4	1367	1352.6	3.81	3.47	3.17
x1 = 0.409	1168.33	1163.87	1159.41	1373.6	1360.1	1346.7	6.01	5.41	4.88
x1 = 0.4969	1193.03	1188.67	1184.31	1369.7	1356.8	1344	8.71	7.74	6.89
x1 = 0.603	1217.94	1213.69	1209.43	1365.6	1353.3	1341.1	13.22	11.6	10.21
x1 = 0.699	1237.03	1232.85	1228.67	1363	1351.2	1339.5	19.53	16.84	14.64
x1 = 0.809	1256.31	1252.21	1248.11	1361.7	1350.3	1339.1	29.38	24.86	21.29
x1 = 0.8928	1269.5	1265.45	1261.4	1360.9	1349.7	1338.7	37.11	31.09	26.39
x1 = 1	1285.47	1281.47	1277.48	1360.7	1349.9	1338.8	43.67	36.29	30.57

— the NIST ThermoML archive (doi:10.1021/acs.jced.8b00176)
